This assay concerns the target human Gal-3 (hGal-3) (Homo sapiens (Human), UniProt P17931). The experiment in a line: competitive binding assay: binding of biotinylated hGal-3 to microplate-adsorbed asialofetuin (ASF), spectrophotometric. To be noted: Activity on hGal-3; mean values of several measurements. The gist of the method:
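Compounds diluted in DMSO competed with biotinylated hGal-3 or hGal-1 (300-1000 ng/mL) for binding to plate-adsorbed asialofetuin for 3 h at 4° C. Bound galectin was detected with streptavidin-peroxidase (80 ng/mL, 1 h, 4° C) and ABTS substrate; IC50 reported as mean of several measurements.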
human Gal-3 (hGal-3), sequence (P17931 whole entry): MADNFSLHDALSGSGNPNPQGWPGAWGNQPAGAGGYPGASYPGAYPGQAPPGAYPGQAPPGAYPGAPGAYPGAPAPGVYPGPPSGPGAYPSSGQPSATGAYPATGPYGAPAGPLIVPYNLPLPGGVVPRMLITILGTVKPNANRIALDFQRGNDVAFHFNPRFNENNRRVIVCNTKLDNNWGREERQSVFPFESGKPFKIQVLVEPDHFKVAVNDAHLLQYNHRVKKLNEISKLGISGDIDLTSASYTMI
`CO[C@@H]1[C@@H](n2cc(-c3cc(F)c(C)c(F)c3)nn2)[C@@H](O)[C@@H](CO)O[C@H]1C(=O)N(c1cc(Cl)cc(Cl)c1)[C@H]1CC[C@@H]1O` [Example 2.4.2, (2R,3R,4S,5R,6R)-N-(3,5-dichlorophenyl)-4-(4-(3,5-difluoro-4-methylphenyl)-1H-1,2,3-triazol-1-yl)-5-hydroxy-N-((1S,2S)-2-hydroxycyclobutyl)-6-(hydroxymethyl)-3-methoxytetrahydro-2H-pyran-2-carboxamide] had an IC50 of 38 nM.
In the case of `CC(=O)O[C@@H]1[C@@H](n2cc(-c3cc(F)c(F)c(F)c3)nn2)[C@@H](O)[C@@H](CO)O[C@H]1C(=O)N(c1cc(Cl)cc(C#N)c1)[C@H]1CC[C@@H]1O` [Example 2A.1.4, (2R,3R,4S,5R,6R)-2-((3-chloro-5-cyanophenyl)((1S,2S)-2-hydroxycyclobutyl)carbamoyl)-5-hydroxy-6-(hydroxymethyl)-4-(4-(3,4,5-trifluorophenyl)-1H-1,2,3-triazol-1-yl)tetrahydro-2H-pyran-3-yl acetate] it was 36.2 nM; in that of `COc1cc(-c2cn([C@H]3[C@@H](O)[C@@H](CO)O[C@@H](C(=O)N(c4cc(C)cc(Br)c4)[C@H]4CCC[C@@H]4O)[C@@H]3OC)nn2)cc(F)c1F` [Example 1.3.12, (2R,3R,4S,5R,6R)-N-(3-bromo-5-methylphenyl)-4-(4-(3,4-difluoro-5-methoxyphenyl)-1H-1,2,3-triazol-1-yl)-5-hydroxy-N-((1S,2S)-2-hydroxycyclopentyl)-6-(hydroxymethyl)-3-methoxytetrahydro-2H-pyran-2-carboxamide], 42.1 nM; in that of `CO[C@@H]1[C@@H](n2cc(-c3cc(F)cc(Br)c3)nn2)[C@@H](O)[C@@H](CO)O[C@H]1C(=O)N(c1cc(Br)cc(C#N)c1)[C@@H]1CCC[C@H]1O` [Example 1.10.5R, (2R,3R,4S,5R,6R)-N-(3-bromo-5-cyanophenyl)-4-(4-(3-bromo-5-fluorophenyl)-1H-1,2,3-triazol-1-yl)-5-hydroxy-N-((1R,2R)-2-hydroxycyclopentyl)-6-(hydroxymethyl)-3-methoxytetrahydro-2H-pyran-2-carboxamide], 508 nM.
As for `CO[C@@H]1[C@@H](n2cc(-c3cc(F)c(Cl)c(F)c3)nn2)[C@@H](O)[C@@H](CO)O[C@H]1C(=O)N(c1cc(Cl)cc(C#N)c1)[C@H]1CC[C@@H]1O` [Example 2.5.4, (2R,3R,4S,5R,6R)-4-(4-(4-chloro-3,5-difluorophenyl)-1H-1,2,3-triazol-1-yl)-N-(3-chloro-5-cyanophenyl)-5-hydroxy-N-((1S,2S)-2-hydroxycyclobutyl)-6-(hydroxymethyl)-3-methoxytetrahydro-2H-pyran-2-carboxamide], the IC50 was determined as 71.4 nM.
In the case of `CO[C@@H]1[C@@H](n2cc(-c3cc(F)c(C)c(F)c3)nn2)[C@@H](O)[C@@H](CO)O[C@H]1C(=O)N(c1cc(Cl)cc(C#N)c1)[C@H]1CCC[C@@H]1O` [Example 1.4.4, (2R,3R,4S,5R,6R)-N-(3-chloro-5-cyanophenyl)-4-(4-(3,5-difluoro-4-methylphenyl)-1H-1,2,3-triazol-1-yl)-5-hydroxy-N-((1S,2S)-2-hydroxycyclopentyl)-6-(hydroxymethyl)-3-methoxytetrahydro-2H-pyran-2-carboxamide] it was 17.3 nM.
`CO[C@@H]1[C@@H](n2cc(-c3cc(F)c(F)c(Cl)c3)nn2)[C@@H](O)[C@@H](CO)O[C@H]1C(=O)N(c1cc(Br)cc(C#N)c1)[C@H]1CC[C@@H]1O` [Example 2.7.5, (2R,3R,4S,5R,6R)-N-(3-bromo-5-cyanophenyl)-4-(4-(3-chloro-4,5-difluorophenyl)-1H-1,2,3-triazol-1-yl)-5-hydroxy-N-((1S,2S)-2-hydroxycyclobutyl)-6-(hydroxymethyl)-3-methoxytetrahydro-2H-pyran-2-carboxamide] had an IC50 of 80.3 nM.
In the case of `CO[C@@H]1[C@@H](n2cc(-c3ccc(C)c(F)c3F)nn2)[C@@H](O)[C@@H](CO)O[C@H]1C(=O)N(c1cc(Br)cc(C#N)c1)[C@@H]1CCC[C@H]1O` [Example 1.11.5R, (2R,3R,4S,5R,6R)-N-(3-bromo-5-cyanophenyl)-4-(4-(2,3-difluoro-4-methylphenyl)-1H-1,2,3-triazol-1-yl)-5-hydroxy-N-((1R,2R)-2-hydroxycyclopentyl)-6-(hydroxymethyl)-3-methoxytetrahydro-2H-pyran-2-carboxamide] it was 73.1 nM; in that of `CO[C@@H]1[C@@H](n2cc(-c3ccc(Cl)c(Cl)c3)nn2)[C@@H](O)[C@@H](CO)O[C@H]1C(=O)N(c1cc(Cl)cc(C#N)c1)[C@H]1CCC[C@@H]1O` [Example 1.8.4, (2R,3R,4S,5R,6R)-N-(3-chloro-5-cyanophenyl)-4-(4-(3,4-dichlorophenyl)-1H-1,2,3-triazol-1-yl)-5-hydroxy-N-((1S,2S)-2-hydroxycyclopentyl)-6-(hydroxymethyl)-3-methoxytetrahydro-2H-pyran-2-carboxamide], 75.9 nM.
In the case of `CO[C@@H]1[C@@H](n2cc(-c3cc(F)c(F)c(F)c3)nn2)[C@@H](O)[C@@H](CO)O[C@H]1C(=O)N(c1cc(Br)cc(C#N)c1)[C@H]1CCC[C@@H]1O` [Example 1.1.5, (2R,3R,4S,5R,6R)-N-(3-bromo-5-cyanophenyl)-5-hydroxy-N-((1S,2S)-2-hydroxycyclopentyl)-6-(hydroxymethyl)-3-methoxy-4-(4-(3,4,5-trifluorophenyl)-1H-1,2,3-triazol-1-yl)tetrahydro-2H-pyran-2-carboxamide], the IC50 is 23 nM.
Regarding `CO[C@@H]1[C@@H](n2cc(-c3cc(F)c(F)c(Cl)c3)nn2)[C@@H](O)[C@@H](CO)O[C@H]1C(=O)N(c1cc(Br)cc(C#N)c1)[C@H]1CCC[C@@H]1O` [Example 1.7.5, (2R,3R,4S,5R,6R)-N-(3-bromo-5-cyanophenyl)-4-(4-(3-chloro-4,5-difluorophenyl)-1H-1,2,3-triazol-1-yl)-5-hydroxy-N-((1S,2S)-2-hydroxycyclopentyl)-6-(hydroxymethyl)-3-methoxytetrahydro-2H-pyran-2-carboxamide], the IC50 is 21.2 nM.
The figure for “(2R,3R,4S,5R,6R)-N-(3,5-dichlorophenyl)-3,5-dihydroxy-N-((1S,2S)-2-hydroxycyclopentyl)-6-(hydroxymethyl)-4-(4-(3,4,5-trifluorophenyl)-1H-1,2,3-triazol-1-yl)tetrahydro-2H-pyran-2-carboxamide [Example 1H.1.2]” is 29.4 nM.
The compound `COc1cc(C#N)cc(N(C(=O)[C@@H]2O[C@H](CO)[C@H](O)[C@H](n3cc(-c4cc(F)cc(Br)c4)nn3)[C@H]2OC)[C@@H]2CCC[C@H]2O)c1` [Example 1.10.9R, (2R,3R,4S,5R,6R)-4-(4-(3-bromo-5-fluorophenyl)-1H-1,2,3-triazol-1-yl)-N-(3-cyano-5-methoxyphenyl)-5-hydroxy-N-((1R,2R)-2-hydroxycyclopentyl)-6-(hydroxymethyl)-3-methoxytetrahydro-2H-pyran-2-carboxamide] yielded a half-maximal inhibitory concentration (IC50) of 1200 nM.
Compound `CO[C@@H]1[C@@H](n2cc(-c3cc(F)c(C)c(F)c3)nn2)[C@@H](O)[C@@H](CO)O[C@H]1C(=O)N(c1cc(Br)cc(C#N)c1)[C@H]1CCC[C@@H]1O` [Example 1.4.5, (2R,3R,4S,5R,6R)-N-(3-bromo-5-cyanophenyl)-4-(4-(3,5-difluoro-4-methylphenyl)-1H-1,2,3-triazol-1-yl)-5-hydroxy-N-((1S,2S)-2-hydroxycyclopentyl)-6-(hydroxymethyl)-3-methoxytetrahydro-2H-pyran-2-carboxamide] returned an IC50 of 16.9 nM.
The figure for `CO[C@@H]1[C@@H](n2cc(-c3ccc(Br)c(F)c3F)nn2)[C@@H](O)[C@@H](CO)O[C@H]1C(=O)N(c1cc(Cl)cc(C#N)c1)[C@H]1CCC[C@@H]1O` [Example 1.12.4, (2R,3R,4S,5R,6R)-4-(4-(4-bromo-2,3-difluorophenyl)-1H-1,2,3-triazol-1-yl)-N-(3-chloro-5-cyanophenyl)-5-hydroxy-N-((1S,2S)-2-hydroxycyclopentyl)-6-(hydroxymethyl)-3-methoxytetrahydro-2H-pyran-2-carboxamide] is 21.7 nM.

The term IC50 denotes the midpoint of a concentration-inhibition curve. Low readings indicate greater potency, high ones weaker potency.
